Test results: patent publication US20060189673A1, “Phenylazole compound, production process therefor and antioxidant” (Nippon Soda Co., Ltd., priority 2003, published 2006)
Where two headings read alike, the source gives them in different places.

Tests used:
[1] = system: lipid peroxides in retina homogenate; experiment: Retina migration: formation of lipid peroxides in retina ex vivo after oral administration; design: species or system rat; conditions: male SD rats, retinas removed 30 minutes later, auto-oxidized 1 hour at 37° C.
Method: The retina migration of the compounds according to the present invention was evaluated. The test compounds dissolved or suspended in 0.1 N aqueous hydrochloric acid solution or 1% polyethylene hardened castor oil (Nikkol HCO-60) solution were orally administered to male SD rats (age: 6 weeks) in groups of three animals each followed by removing both eyes 30 minutes later and separating the retinas while cooling with ice. The retinas were homogenized with a Polytron Microhomogenizer (NS-310E: manufactured by Niti-On Medical and Physical Instruments) in 0.1 M Tris-HCl buffer (pH 7.4) while cooling with ice to prepare 5% homogenates. The homogenates were then auto-oxidized for 1 hour at 37° C., and the amounts of lipid peroxide that formed were quantified using the thiobarbituric acid method (Masugi, et al., Vitamin, 51, 21 to 29, 1977).

[2] = molecular target: T1, 15-lipoxygenase (15-LO) (Oryctolagus cuniculus, UniProt P12530); experiment: 15-LO inhibitory activity (15-LO from rabbit reticulocytes, linoleic acid, 15-HETE formation); format: biochemical; conditions: 256 μM linoleic acid, 4° C., read-out: Lipoxygenase inhibitory action 50% inhibitory concentration (IC50 μm) 15-LO
T1 construct: 15-LO obtained from rabbit reticulocytes; from tissue; host or cells: rabbit reticulocytes
T1 sequence (P12530 1-663): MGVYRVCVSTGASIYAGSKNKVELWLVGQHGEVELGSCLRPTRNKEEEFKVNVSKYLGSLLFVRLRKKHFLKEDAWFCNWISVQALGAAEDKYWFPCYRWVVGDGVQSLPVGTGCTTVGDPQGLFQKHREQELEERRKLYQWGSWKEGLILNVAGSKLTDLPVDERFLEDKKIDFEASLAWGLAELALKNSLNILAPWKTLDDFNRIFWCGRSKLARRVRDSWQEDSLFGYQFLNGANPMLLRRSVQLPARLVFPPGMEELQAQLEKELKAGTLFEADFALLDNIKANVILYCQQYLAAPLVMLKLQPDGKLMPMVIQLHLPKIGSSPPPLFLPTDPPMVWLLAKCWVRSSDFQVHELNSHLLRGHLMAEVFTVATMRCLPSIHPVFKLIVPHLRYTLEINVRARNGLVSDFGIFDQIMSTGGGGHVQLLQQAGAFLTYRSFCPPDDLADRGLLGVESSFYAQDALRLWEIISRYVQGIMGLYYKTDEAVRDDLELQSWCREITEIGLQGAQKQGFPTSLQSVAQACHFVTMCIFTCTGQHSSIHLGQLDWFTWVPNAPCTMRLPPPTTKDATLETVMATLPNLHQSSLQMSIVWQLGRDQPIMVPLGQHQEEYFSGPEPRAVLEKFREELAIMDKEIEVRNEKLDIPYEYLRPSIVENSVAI
Method: 15-LO inhibitory activity was measured using a variation of the method of Auerbach et al. (Auerbach B. J. et al., Anal. Biochem., 201, 375 to 380, 1992). Namely, after pre-incubating (4° C., 15 minutes) in phosphate buffer (pH 7.4) 15-LO obtained from rabbit reticulocytes and a test compound dissolved in DMSO (final concentration: 1%), 256 μM linoleic acid was added and the resulting solution was additionally incubated (4° C., 10 minutes). The resulting 15-HETE that formed was quantified by spectrophotometry (OD660 nm), and the 50% formation inhibitory concentration (μM) of the test compound with respect to 15-LO was calculated from that value.

[3] = system: lipid peroxide in rat brain homogenate; experiment: Antioxidative action on lipids in vitro (lipid peroxide activity in rat brain homogenate, thiobarbituric acid method); format: biochemical; conditions: 500 μM cysteine, 5 μM ferrous sulfate, 100 mM KCl, 30 minutes at 37° C., malondialdehyde, read-out: 50% inhibitory concentration of anti-lipid peroxide action in vitro (IC50)
Method: (§1) The antioxidative action on lipids in vitro of the compounds according to the present invention was evaluated in accordance with the method of Malvy et al. (Malvy C. et al.,) described in Biochemical and Biophysical Research Communications, 1980, vol. 95, pp. 734 to 737,) by measuring the lipid peroxide activity in a rat brain homogenate. Namely, the rat brain was removed followed by the addition of five volumes of an aqueous solution of phosphate buffered saline (pH 7.4) (hereinafter, abbreviated as PBS) to the brain while cooling with water, homogenizing with a Teflon homogenizer, and centrifuging for 20 minutes at 10,000 g to collect the supernatant as a brain homogenate. 500 μM cysteine, 5 μM ferrous sulfate, and 100 mM KCl were added to the resulting brain homogenate followed by incubating for 30 minutes at 37° C. and measuring the malondialdehyde that formed due to decomposition of lipid peroxide using the thiobarbituric acid method. The 50% inhibitory concentrations (hereinafter, abbreviated as IC50) of the compounds according to the present invention were then determined from the measured values.

[4] = system: lipid peroxide in homogenates of brain, heart and kidneys; experiment: Tissue migration: antioxidative action on lipids ex vivo in tissue homogenates after intraperitoneal administration; conditions: Rattus norvegicus, ip, 0.5 h, male SD rats, 100 mg/kg intraperitoneally, 30 minutes after administration
Method: as §1
Tissue migration of the compounds according to the present invention was evaluated by measuring the antioxidative action on lipids ex vivo. A test compound dissolved or suspended in an aqueous physiological saline solution or aqueous physiological saline solution containing 1% polyethylene hardened castor oil (Nikko Chemicals: Nikkol HCO-60) was intraperitoneally administered to male SD rats (age: 6 weeks) (purchased from Japan SLC) in groups of 3 animals each at a dose of 100 mg/kg. The animals were sacrificed by exsanguination by severing the carotid artery 30 minutes after administration followed by removing the brain, heart and kidneys. The lipid peroxide activity of homogenates of each tissue was measured using the method described in Example 3. The inhibition rates of the test compounds in each tissue were determined from the amounts of lipid peroxide formed in a control group (physiological saline dose group) and test compound groups.

[5] = molecular target: T2, 5-lipoxygenase (5-LO) (Homo sapiens, UniProt P09917); experiment: 5-LO inhibitory activity (leucotriene B4 formation in human peripheral blood mononuclear cells, A23187); format: cell-based; conditions: 30 μM A23187, read-out: Lipoxygenase inhibitory action 50% inhibitory concentration (IC50 μm) 5-LO
T2 construct: human peripheral blood mononuclear cells; endogenous in cells; host or cells: human peripheral blood mononuclear cells
T2 sequence (P09917 1-674): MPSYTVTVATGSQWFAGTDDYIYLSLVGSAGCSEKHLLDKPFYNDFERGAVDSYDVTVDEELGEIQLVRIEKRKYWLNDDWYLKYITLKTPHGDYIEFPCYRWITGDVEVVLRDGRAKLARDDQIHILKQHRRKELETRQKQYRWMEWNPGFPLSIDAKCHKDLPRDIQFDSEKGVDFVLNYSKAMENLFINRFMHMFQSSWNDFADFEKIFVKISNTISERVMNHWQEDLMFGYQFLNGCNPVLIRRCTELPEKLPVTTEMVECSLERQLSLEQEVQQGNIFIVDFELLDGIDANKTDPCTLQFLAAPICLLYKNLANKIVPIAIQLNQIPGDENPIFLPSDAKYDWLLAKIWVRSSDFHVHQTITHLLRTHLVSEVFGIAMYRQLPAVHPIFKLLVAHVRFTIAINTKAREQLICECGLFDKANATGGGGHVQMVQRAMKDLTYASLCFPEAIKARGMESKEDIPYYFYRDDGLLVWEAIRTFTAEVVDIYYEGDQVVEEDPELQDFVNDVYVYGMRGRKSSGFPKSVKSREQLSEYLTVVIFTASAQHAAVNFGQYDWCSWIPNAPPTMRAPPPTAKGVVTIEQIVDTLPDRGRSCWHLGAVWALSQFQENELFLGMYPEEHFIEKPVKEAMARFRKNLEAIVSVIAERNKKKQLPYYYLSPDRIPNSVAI
Method: 5-LO inhibitory activity was measured using a variation of the method of Carter et al. (Carter G. W. et al., J. Pharmacol. Exp. Ther., 256, 929 to 937, 1991). Namely, after pre-incubating (37° C., 15 minutes) in Hank's solution human peripheral blood mononuclear cells and a test compound dissolved in DMSO (final concentration: 1%), 30 μM A23187 was added and the resulting solution was additionally incubated (37° C., 30 minutes). The resulting leucotriene B4 that formed was quantified by enzyme immunoassay, and the 50% formation inhibitory concentration (μM) of the test compound with respect to 5-LO was calculated from that value.

[6] = system: mice administered ferrous chloride into the spinal subarachnoid cavity; experiment: Antioxidative action in vivo: abnormal behavior and mortality after ferrous chloride into the spinal subarachnoid cavity; design: species or system mouse; conditions: male ICR mice, 30 minutes before ferrous chloride, score after 60 minutes
Method: The antioxidative action in vivo of the compounds according to the present invention was evaluated according to the method described in the Journal of Medical Chemistry (J. Med. Chem., 1997, vol. 40, pp. 559 to 573) based on the inhibitory effects on abnormal behavior and mortality rate following administration of ferrous chloride into the spinal subarachnoid cavity of mice. Male S1c:ICR mice (age: 5 weeks) (purchased from Japan SLC) were used in groups of 3 to 7 animals each, and were administered 5 μl of aqueous physiological saline solution containing 50 mM ferrous chloride into the spinal column between the 5th and 6th lumbar vertebra. […] The test compounds were dissolved or suspended in an aqueous physiological saline solution or an aqueous physiological saline solution containing 1% polyethylene hardened castor oil (manufactured by Nikko Chemicals CO., LTD. under the name of NIKKOL HCO-60), and administered intraperitoneally or orally 30 minutes before the administration of ferrous chloride. The 50% inhibitory dose (hereinafter, abbreviated as ID50) of each test compound was determined from the score of a control group (physiological saline treated group) and the score of each test compound treated group.

[7] = brain, read-out: Inhibition rate of ex vivo anti-lipid peroxide action (%) Brain
[8] = heart, read-out: Inhibition rate of ex vivo anti-lipid peroxide action (%) Heart
[9] = kidney, read-out: Inhibition rate of ex vivo anti-lipid peroxide action (%) Kidney

| SMILES | Inhibitory effect on formation of lipid peroxides in retina ex vivo 30% inhibitory concentration (ID30 mg/kg, oral administration) [1] [mg/kg] | IC50 [2] [nM] | IC50 [3] [nM] | inhibition at 100 mg/kg [4, 7] [%] | inhibition at 100 mg/kg [4, 8] [%] | inhibition at 100 mg/kg [4, 9] [%] | IC50 [5] [nM] | Antioxidative action in vivo 50% inhibitory dose (ID50 mg/kg) Intraperitoneal administration [6] [mg/kg] | Antioxidative action in vivo 50% inhibitory dose (ID50 mg/kg) Oral administration [6] [mg/kg] |
| --- | --- | --- | --- | --- | --- | --- | --- | --- | --- |
| Cc1c(C)c2c(c(C)c1N)CC(C)(C(=O)Nc1ccc(-c3ccn[nH]3)cc1)O2 (stereo not drawn) [Compound 37] | 5.2 | 2060 | 800 | 95 | 87 | 89 | 230 | 12 | 27 |
| Cc1c(C)c2c(c(C)c1O)CCC(C)(OC=Nc1ccc(-n3ccnc3)cc1)O2 (stereo not drawn) [Control drug 2, reference compound] | – | – | 230 | 45 | 57 | 84 | – | 20 | 53 |
| Cc1c(C)c2c(c(C)c1N)CC(C)(C(=O)Nc1ccc(-n3ccnc3)cc1)O2 (racemic) [Compound 1, (±)-(5-amino-2,4,6,7-tetramethyldihydrobenzofuran-2-yl)-N-[4-(imidazol-1-yl)phenyl]carboxamide] | 16 | – | – | 83 | 80 | 87 | – | 6.8 | 9.7 |
| Cc1c(C)c2c(c(C)c1O)CC(C)(OC=Nc1ccc(-n3ccnc3)cc1)O2 (stereo not drawn) [Control drug 1, reference compound] | – | – | 230 | 68 | 59 | 75 | – | >30 | >30 |
